Laboratory results: patent US5466717A, “Halogenated 4'-methoxyacetophenones as microbicides and preservatives” (Buckman Laboratories Int'l, Inc., priority 1993, dated 1995)
Where two headings read alike, the source gives them in different places.

Columns and labels:
Enterobacter aerogenes = experiment: Pulp substrate method, percent kill of E. aerogenes (Table 2); type: cell-based; details: for killing at 1 ppm / killing at 2 ppm / killing at 4 ppm / killing at 8 ppm / killing at 10 ppm / killing at 15 ppm / killing at 20 ppm / killing at 25 ppm: Klebsiella aerogenes, pulp substrate, read-out: % Kill of E. aerugenes; for bactericidal activity (in words): at both neutral and alkaline pH, conclusion from Table 2 (E. aerogenes and P. aeruginosa)
Experimental: Compounds 1 and 2 were tested by the pulp substrate method described in detail in U.S. Pat. No. 2,881,070, column 5, line 12--column 6, line 53. The disclosure of U.S. Pat. No. 2,881,070 is specifically incorporated here by reference. […] The tests utilized Enterobacter aerogenes and Pseudomonas aeruginosa in pulp substrates that had been buffered at pH 7.0 and 8.0.

[1] = system: Aspergillus sp., Aureobasidium sp., Trichoderma sp., Penicillium sp., and Chaetomium sp.; experiment: Resistance to growth of mold on the surface of interior coatings in an environmental chamber, ASTM D3273-86 (Table 4); set-up: key: 10: no mold growth; 9: very slight mold growth; 8: slight growth; 7: slight to medium growth; 6: slight to medium growth; 5: failure (extensive growth)
Experimental: A standard method to determine the resistance to growth of mold on the surface of interior coatings in an environmental chamber, ASTM method D3273-86, was used to determine the effectiveness of compounds 1 and 2.
Treatments were prepared by dissolving 2.0 g of the compounds of the present invention in 10 mL of acetone/methanol. Two types of paint were used: namely, an alkyd (self-priming white with Beckasol 296-70) and a latex (self-priming, alkyd-modified acrylic paint). […] Each sample was shaken vigorously for 5 minutes using a standard paint shaker.
Blocks of drywall having two inch by four inch dimensions were painted on the front surface and on all edges with two coats of the respective treatments. After drying, the back side was painted with one coat of clear latex. A hole was drilled half-way through the block at one end, and duplicate blocks per treatment were hung in an environmental chamber.
The aggressive nature of the interior of the chamber was developed by inoculating trays of moist potting soil with active cultures of Aspergillus sp., Aureobasidium sp., Trichoderma sp., Penicillium sp., and Chaetomium sp. The chamber was maintained at 100 percent relative humidity and 32° C. Final observations were made after four weeks (for latex blocks) or eight weeks (for alkyd blocks).

P. aeruginosa = experiment: Basal salts method, percentage kill of P. aeruginosa (Table 5); type: cell-based; details: Pseudomonas aeruginosa
Experimental: Compounds 1 and 2 were tested against bacterial growth by the basal salts method described in U.S. Pat. No. 2,881,070, Column 5, line 12--Column 6, line 53. The disclosure of U.S. Patent No. 2,881,070 is specifically incorporated here by reference.

[2] = system: Desulfovibrio desulfuricans; experiment: Effectiveness against sulfate reducing bacterium, Method API Rp 38 (Table 7); type: cell-based; set-up: key: +: growth; 0: no growth; details: pH 7.0, duplicates
Experimental: (§1) The effectiveness of compounds 1 and 2 against Desulfovibrio desulfuricans,a sulfate reducing bacterium, was determined using the method recommended by the American Petroleum Institute (Method API Rp 38). The composition of the sulfate-reducer medium for the bacteriostatic test is as follows: The ingredients are dissolved by gentle heating with constant stirring. […] If necessary, the medium is then filtered through Whatman No. 1 or No. 2 filter paper. Following filtration, the medium is autoclaved at 15 lb steam pressure for […]. After autoclaving, the medium is allowed to cool slightly and the iron salt, Fe(SO4)2 (NH4)2.6H2 O, is added. The pH is then checked and readjusted if necessary. The medium is now cooled to room temperature as rapidly as possible, without agitation. After cooling, the medium is inoculated from the third successive 24-hour transfer of an actively growing culture (a liquid culture which turns black within 24 hours after inoculation) of sulfate-reducing bacteria. Ten milliliters of inoculum are added to each liter of medium. From stock solutions of the chemical to be screened, sufficient amounts of the compounds are added to 1- or 2-oz clear bottles so that the desired concentrations of chemicals are present when the containers are filled. The amount of stock solution added cannot exceed 10 percent of the volume of the test bottle. After addition of the chemical, the bottles are completely filled with the inoculated medium. The bottles are then capped with plastic caps containing cork and aluminum foil or Teflon liners and are incubated at 30°±2° C. All work is done in duplicate with at least three controls for each series. The controls consist of bottles filled with inoculated medium only. Growth of sulfate-reducing bacteria in the bottles is indicated by an intense blackening of the medium, whereas containers having sufficient chemical to inhibit growth will remain clear. Bottles with no sulfate-reducing bacteria growth are observed for a period of 28 days after the controls have blackened. The results were recorded using a +/0 scale where "+" indicates growth and "0" indicates no growth.

[3] = system: Desulfovibrio desulfuricans; experiment: as above; type: cell-based; set-up: key: 4: excellent; 3: good; 2: poor; 1: very poor, scant, questionable; 0: no growth; details: pH 7.0, duplicates
Experimental: as §1

[4] = 0.01 % by weight, alkyd, eight weeks
[5] = 0.01 % by weight, latex, four weeks
[6] = 0.025 % by weight, alkyd, eight weeks
[7] = 0.025 % by weight, latex, four weeks
[8] = 0.05 % by weight, alkyd, eight weeks
[9] = 0.05 % by weight, latex, four weeks
[10] = 0.10 % by weight, alkyd, eight weeks
[11] = 0.10 % by weight, latex, four weeks
[12] = 0.25 % by weight, alkyd, eight weeks
[13] = 0.25 % by weight, latex, four weeks
[14] = 0.50 % by weight, alkyd, eight weeks
[15] = 0.50 % by weight, latex, four weeks

COc1ccc(C(=O)CBr)cc1Br [Compound 1, 2,3'-dibromo-4'-methoxyacetophenone]
killing at 1 ppm (Enterobacter aerogenes; pH 7.0): 31% | killing at 1 ppm (Enterobacter aerogenes; pH 8.0): 73% | killing at 2 ppm (Enterobacter aerogenes; pH 7.0): 25% | killing at 2 ppm (Enterobacter aerogenes; pH 8.0): 81% | killing at 4 ppm (Enterobacter aerogenes; pH 7.0): 38% | killing at 4 ppm (Enterobacter aerogenes; pH 8.0): 93% | killing at 8 ppm (Enterobacter aerogenes; pH 7.0): 0% | killing at 8 ppm (Enterobacter aerogenes; pH 8.0): 97% | killing at 10 ppm (Enterobacter aerogenes; pH 7.0): 10% | killing at 10 ppm (Enterobacter aerogenes; pH 8.0): 92% | killing at 15 ppm (Enterobacter aerogenes; pH 7.0): 18% | killing at 15 ppm (Enterobacter aerogenes; pH 8.0): 99.8% | killing at 20 ppm (Enterobacter aerogenes; pH 7.0): 96% | killing at 20 ppm (Enterobacter aerogenes; pH 8.0): 100% | killing at 25 ppm (Enterobacter aerogenes; pH 7.0): 99% | killing at 25 ppm (Enterobacter aerogenes; pH 8.0): 97.8% | bactericidal activity (in words) (Enterobacter aerogenes): good bactericides | Growth of mold on the surface of interior coatings [1, 4]: 5 | Growth of mold on the surface of interior coatings [1, 5]: 8 | Growth of mold on the surface of interior coatings [1, 6]: 5 | Growth of mold on the surface of interior coatings [1, 7]: 8 | Growth of mold on the surface of interior coatings [1, 8]: 6 | Growth of mold on the surface of interior coatings [1, 9]: 9 | Growth of mold on the surface of interior coatings [1, 10]: 6 | Growth of mold on the surface of interior coatings [1, 11]: 9 | Growth of mold on the surface of interior coatings [1, 12]: 7 | Growth of mold on the surface of interior coatings [1, 13]: 10 | Growth of mold on the surface of interior coatings [1, 14]: 7 | Growth of mold on the surface of interior coatings [1, 15]: 10 | killing at 10 ppm (P. aeruginosa; pH 6.0): 100% | killing at 10 ppm (P. aeruginosa; pH 8.0): 98% | killing at 20 ppm (P. aeruginosa; pH 6.0): 100% | killing at 20 ppm (P. aeruginosa; pH 8.0): 99% | killing at 30 ppm (P. aeruginosa; pH 6.0): 100% | killing at 30 ppm (P. aeruginosa; pH 8.0): 99.6% | growth of Desulfovibrio desulfuricans ([2]; 1 ppm): + | growth of Desulfovibrio desulfuricans ([2]; 2 ppm): + | growth of Desulfovibrio desulfuricans ([2]; 8 ppm): + | growth of Desulfovibrio desulfuricans ([3]; 4 ppm): 0 | growth of Desulfovibrio desulfuricans ([3]; 10 ppm): 0 | growth of Desulfovibrio desulfuricans ([3]; 15 ppm): 0 | growth of Desulfovibrio desulfuricans ([3]; 20 ppm): 0

COc1ccc(C(=O)C(Br)Br)cc1Br [Compound 2, 2,2,3'-tribromo-4'-methoxyacetophenone]
killing at 1 ppm (Enterobacter aerogenes; pH 7.0): 12% | killing at 1 ppm (Enterobacter aerogenes; pH 8.0): 9% | killing at 2 ppm (Enterobacter aerogenes; pH 7.0): 22% | killing at 2 ppm (Enterobacter aerogenes; pH 8.0): 43% | killing at 4 ppm (Enterobacter aerogenes; pH 7.0): 41% | killing at 4 ppm (Enterobacter aerogenes; pH 8.0): 83% | killing at 8 ppm (Enterobacter aerogenes; pH 7.0): 35% | killing at 8 ppm (Enterobacter aerogenes; pH 8.0): 91% | killing at 10 ppm (Enterobacter aerogenes; pH 7.0): 39% | killing at 10 ppm (Enterobacter aerogenes; pH 8.0): 89% | killing at 15 ppm (Enterobacter aerogenes; pH 7.0): 52% | killing at 15 ppm (Enterobacter aerogenes; pH 8.0): 96% | killing at 20 ppm (Enterobacter aerogenes; pH 7.0): 45% | killing at 20 ppm (Enterobacter aerogenes; pH 8.0): 98% | killing at 25 ppm (Enterobacter aerogenes; pH 7.0): 51% | killing at 25 ppm (Enterobacter aerogenes; pH 8.0): 99% | bactericidal activity (in words) (Enterobacter aerogenes): good bactericides | Growth of mold on the surface of interior coatings [1, 4]: 5 | Growth of mold on the surface of interior coatings [1, 5]: 9 | Growth of mold on the surface of interior coatings [1, 6]: 5 | Growth of mold on the surface of interior coatings [1, 7]: 10 | Growth of mold on the surface of interior coatings [1, 8]: 6 | Growth of mold on the surface of interior coatings [1, 9]: 10 | Growth of mold on the surface of interior coatings [1, 10]: 8 | Growth of mold on the surface of interior coatings [1, 11]: 10 | Growth of mold on the surface of interior coatings [1, 12]: 10 | Growth of mold on the surface of interior coatings [1, 13]: 10 | Growth of mold on the surface of interior coatings [1, 14]: 10 | Growth of mold on the surface of interior coatings [1, 15]: 10 | killing at 10 ppm (P. aeruginosa; pH 6.0): 99.8% | killing at 10 ppm (P. aeruginosa; pH 8.0): 94% | killing at 20 ppm (P. aeruginosa; pH 6.0): 100% | killing at 20 ppm (P. aeruginosa; pH 8.0): 100% | killing at 30 ppm (P. aeruginosa; pH 8.0): 100% | growth of Desulfovibrio desulfuricans ([2]; 1 ppm): + | growth of Desulfovibrio desulfuricans ([2]; 2 ppm): + | growth of Desulfovibrio desulfuricans ([2]; 8 ppm): + | growth of Desulfovibrio desulfuricans ([3]; 4 ppm): 0 | growth of Desulfovibrio desulfuricans ([3]; 8 ppm): 0 | growth of Desulfovibrio desulfuricans ([3]; 10 ppm): 0 | growth of Desulfovibrio desulfuricans ([3]; 15 ppm): 0 | growth of Desulfovibrio desulfuricans ([3]; 20 ppm): 0
